Reference: ChEMBL document CHEMBL4138146, “A Schmidt rearrangement-mediated synthesis of novel tetrahydro-benzo[1,4]diazepin-5-ones as potential anticancer and antiprotozoal agents” (Eur J Med Chem, 2017)

What follows are molecules tested on UO-31 (assay: Growth inhibition of human UO31 cells assessed as cell growth at 10 uM incubated for 48 hrs by sulforhodamine B assay relative to control). Details: UO-31, 48 h, read-out: Activity.
Assay type: functional
`CCCCn1c(=O)c(C2CNC(=O)c3ccccc3N2)cc2ccc(Cl)cc21` (stereo not drawn) was tested, and the growth at 10 µM was 75.3%.

The molecules below were run on U-251 (assay: Growth inhibition of human U251 cells assessed as cell growth at 10 uM incubated for 48 hrs by sulforhodamine B assay relative to control). Details: U-251, 48 h, read-out: Activity.
Assay type: functional
In the case of `CCCCn1c(=O)c(C2CNC(=O)c3ccccc3N2)cc2ccc(Cl)cc21` (stereo not drawn), the growth at 10 µM is reported as 102%.

The molecules below were run on CCRF-CEM (assay: Growth inhibition of human CCRF-CEM cells assessed as cell growth at 10 uM incubated for 48 hrs by sulforhodamine B assay relative to control). Details: read-out: Activity.
Assay type: functional
For `CCCCn1c(=O)c(C2CNC(=O)c3ccccc3N2)cc2ccc(Cl)cc21` (stereo not drawn), the growth at 10 µM was 103%.

What follows are molecules tested on SF-539 (assay: Growth inhibition of human SF539 cells assessed as cell growth at 10 uM incubated for 48 hrs by sulforhodamine B assay relative to control). Details: SF-539, 48 h, read-out: Activity.
Assay type: functional
Molecule `CCCCn1c(=O)c(C2CNC(=O)c3ccccc3N2)cc2ccc(Cl)cc21` (stereo not drawn) has a growth at 10 µM of 82%.

What follows are molecules tested on SN12C (assay: Growth inhibition of human SN12C cells assessed as cell growth at 10 uM incubated for 48 hrs by sulforhodamine B assay relative to control). Details: read-out: Activity.
Assay type: functional
In the case of `CCCCn1c(=O)c(C2CNC(=O)c3ccccc3N2)cc2ccc(Cl)cc21` (stereo not drawn), the growth at 10 µM is reported as 90.7%.

The molecules below were run on T47D (assay: Growth inhibition of human T47D cells assessed as cell growth at 10 uM incubated for 48 hrs by sulforhodamine B assay relative to control). Details: read-out: Activity.
Assay type: functional
Work on `CCCCn1c(=O)c(C2CNC(=O)c3ccccc3N2)cc2ccc(Cl)cc21` (stereo not drawn) yielded a growth at 10 µM of 93.6%.

The molecules below were run on A549 (assay: Growth inhibition of human A549/ATCC cells assessed as cell growth at 10 uM incubated for 48 hrs by sulforhodamine B assay relative to control). Details: A549, 48 h, read-out: Activity.
Assay type: functional
`CCCCn1c(=O)c(C2CNC(=O)c3ccccc3N2)cc2ccc(Cl)cc21` (stereo not drawn) gave a growth at 10 µM of 92.6%.

The molecules below were run on Malme-3M (assay: Growth inhibition of human MALME-3M cells assessed as cell growth at 10 uM incubated for 48 hrs by sulforhodamine B assay relative to control). Details: read-out: Activity.
Assay type: functional
Work on `CCCCn1c(=O)c(C2CNC(=O)c3ccccc3N2)cc2ccc(Cl)cc21` (stereo not drawn) yielded a growth at 10 µM of 103%.

Each molecule was assayed on OVCAR-3 (assay: Growth inhibition of human OVCAR3 cells assessed as cell growth at 10 uM incubated for 48 hrs by sulforhodamine B assay relative to control). Details: OVCAR-3, 48 h, read-out: Activity.
Assay type: functional
With `CCCCn1c(=O)c(C2CNC(=O)c3ccccc3N2)cc2ccc(Cl)cc21` (stereo not drawn) the growth at 10 µM was 112%.

These molecules were tested on A498 (assay: Growth inhibition of human A498 cells assessed as cell growth at 10 uM incubated for 48 hrs by sulforhodamine B assay relative to control). Details: A498, 48 h, read-out: Activity.
Assay type: functional
With `CCCCn1c(=O)c(C2CNC(=O)c3ccccc3N2)cc2ccc(Cl)cc21` (stereo not drawn) the growth at 10 µM was 91.3%.

These molecules were tested on HCT-116 (assay: Growth inhibition of human HCT116 cells assessed as cell growth at 10 uM incubated for 48 hrs by sulforhodamine B assay relative to control). Details: HCT-116, 48 h, read-out: Activity.
Assay type: functional
`CCCCn1c(=O)c(C2CNC(=O)c3ccccc3N2)cc2ccc(Cl)cc21` (stereo not drawn) gave a growth at 10 µM of 73%.

The molecules below were run on SW-620 (assay: Growth inhibition of human SW620 cells assessed as cell growth at 10 uM incubated for 48 hrs by sulforhodamine B assay relative to control). Details: SW-620, 48 h, read-out: Activity.
Assay type: functional
With `CCCCn1c(=O)c(C2CNC(=O)c3ccccc3N2)cc2ccc(Cl)cc21` (stereo not drawn) the growth at 10 µM was 100%.

What follows are molecules tested on NCI-H522 (assay: Growth inhibition of human NCI-H522 cells assessed as cell growth at 10 uM incubated for 48 hrs by sulforhodamine B assay relative to control). Details: NCI-H522, 48 h, read-out: Activity.
Assay type: functional
`CCCCn1c(=O)c(C2CNC(=O)c3ccccc3N2)cc2ccc(Cl)cc21` (stereo not drawn) was tested, and the growth at 10 µM was 88.8%.

Each molecule was assayed on NCI-H226 (assay: Growth inhibition of human NCI-H226 cells assessed as cell growth at 10 uM incubated for 48 hrs by sulforhodamine B assay relative to control). Details: NCI-H226, 48 h, read-out: Activity.
Assay type: functional
Molecule `CCCCn1c(=O)c(C2CNC(=O)c3ccccc3N2)cc2ccc(Cl)cc21` (stereo not drawn) has a growth at 10 µM of 99.6%.

What follows are molecules tested on TK-10 (assay: Growth inhibition of human TK10 cells assessed as cell growth at 10 uM incubated for 48 hrs by sulforhodamine B assay relative to control). Details: TK-10, 48 h, read-out: Activity.
Assay type: functional
Work on `CCCCn1c(=O)c(C2CNC(=O)c3ccccc3N2)cc2ccc(Cl)cc21` (stereo not drawn) yielded a growth at 10 µM of 126%.

What follows are molecules tested on NCI-H322M (assay: Growth inhibition of human NCI-H322M cells assessed as cell growth at 10 uM incubated for 48 hrs by sulforhodamine B assay relative to control). Details: read-out: Activity.
Assay type: functional
`CCCCn1c(=O)c(C2CNC(=O)c3ccccc3N2)cc2ccc(Cl)cc21` (stereo not drawn) showed a growth at 10 µM of 95.7%.

Each molecule was assayed on ACHN (assay: Growth inhibition of human ACHN cells assessed as cell growth at 10 uM incubated for 48 hrs by sulforhodamine B assay relative to control). Details: read-out: Activity.
Assay type: functional
In the case of `CCCCn1c(=O)c(C2CNC(=O)c3ccccc3N2)cc2ccc(Cl)cc21` (stereo not drawn), the growth at 10 µM is reported as 95.4%.

These molecules were tested on RXF 393 (assay: Growth inhibition of human RXF393 cells assessed as cell growth at 10 uM incubated for 48 hrs by sulforhodamine B assay relative to control). Details: RXF 393, 48 h, read-out: Activity.
Assay type: functional
In the case of `CCCCn1c(=O)c(C2CNC(=O)c3ccccc3N2)cc2ccc(Cl)cc21` (stereo not drawn), the growth at 10 µM is reported as 115%.

These molecules were tested on KM12 (assay: Growth inhibition of human KM12 cells assessed as cell growth at 10 uM incubated for 48 hrs by sulforhodamine B assay relative to control). Details: KM12, 48 h, read-out: Activity.
Assay type: functional
Work on `CCCCn1c(=O)c(C2CNC(=O)c3ccccc3N2)cc2ccc(Cl)cc21` (stereo not drawn) yielded a growth at 10 µM of 98.5%.

Each molecule was assayed on OVCAR-5 (assay: Growth inhibition of human OVCAR5 cells assessed as cell growth at 10 uM incubated for 48 hrs by sulforhodamine B assay relative to control). Details: OVCAR-5, 48 h, read-out: Activity.
Assay type: functional
For `CCCCn1c(=O)c(C2CNC(=O)c3ccccc3N2)cc2ccc(Cl)cc21` (stereo not drawn), the growth at 10 µM was 109%.

These molecules were tested on NCI/ADR-RES (assay: Growth inhibition of human NCI/ADR-RES cells assessed as cell growth at 10 uM incubated for 48 hrs by sulforhodamine B assay relative to control). Details: read-out: Activity.
Assay type: functional
For `CCCCn1c(=O)c(C2CNC(=O)c3ccccc3N2)cc2ccc(Cl)cc21` (stereo not drawn), the growth at 10 µM was 101%.

What follows are molecules tested on COLO 205 (assay: Growth inhibition of human COLO205 cells assessed as cell growth at 10 uM incubated for 48 hrs by sulforhodamine B assay relative to control). Details: COLO 205, 48 h, read-out: Activity.
Assay type: functional
`CCCCn1c(=O)c(C2CNC(=O)c3ccccc3N2)cc2ccc(Cl)cc21` (stereo not drawn) was tested, and the growth at 10 µM was 89.6%.

Each molecule was assayed on SK-MEL-28 (assay: Growth inhibition of human SK-MEL-28 cells assessed as cell growth at 10 uM incubated for 48 hrs by sulforhodamine B assay relative to control). Details: SK-MEL-28, 48 h, read-out: Activity.
Assay type: functional
In the case of `CCCCn1c(=O)c(C2CNC(=O)c3ccccc3N2)cc2ccc(Cl)cc21` (stereo not drawn), the growth at 10 µM is reported as 108%.

The molecules below were run on SK-OV-3 (assay: Growth inhibition of human SKOV3 cells assessed as cell growth at 10 uM incubated for 48 hrs by sulforhodamine B assay relative to control). Details: SK-OV-3, 48 h, read-out: Activity.
Assay type: functional
Molecule `CCCCn1c(=O)c(C2CNC(=O)c3ccccc3N2)cc2ccc(Cl)cc21` (stereo not drawn) has a growth at 10 µM of 89.8%.

These molecules were tested on UACC-62 (assay: Growth inhibition of human UACC62 cells assessed as cell growth at 10 uM incubated for 48 hrs by sulforhodamine B assay relative to control). Details: UACC-62, 48 h, read-out: Activity.
Assay type: functional
Molecule `CCCCn1c(=O)c(C2CNC(=O)c3ccccc3N2)cc2ccc(Cl)cc21` (stereo not drawn) has a growth at 10 µM of 80.1%.

What follows are molecules tested on SNB-19 (assay: Growth inhibition of human SNB19 cells assessed as cell growth at 10 uM incubated for 48 hrs by sulforhodamine B assay relative to control). Details: SNB-19, 48 h, read-out: Activity.
Assay type: functional
`CCCCn1c(=O)c(C2CNC(=O)c3ccccc3N2)cc2ccc(Cl)cc21` (stereo not drawn) was tested, and the growth at 10 µM was 94.7%.

The molecules below were run on OVCAR-8 (assay: Growth inhibition of human OVCAR8 cells assessed as cell growth at 10 uM incubated for 48 hrs by sulforhodamine B assay relative to control). Details: OVCAR-8, 48 h, read-out: Activity.
Assay type: functional
For `CCCCn1c(=O)c(C2CNC(=O)c3ccccc3N2)cc2ccc(Cl)cc21` (stereo not drawn), the growth at 10 µM was 99.3%.

Each molecule was assayed on HOP-92 (assay: Growth inhibition of human HOP92 cells assessed as cell growth at 10 uM incubated for 48 hrs by sulforhodamine B assay relative to control). Details: HOP-92, 48 h, read-out: Activity.
Assay type: functional
Work on `CCCCn1c(=O)c(C2CNC(=O)c3ccccc3N2)cc2ccc(Cl)cc21` (stereo not drawn) yielded a growth at 10 µM of 95.9%.

These molecules were tested on HT-29 (assay: Growth inhibition of human HT-29 cells assessed as cell growth at 10 uM incubated for 48 hrs by sulforhodamine B assay relative to control). Details: HT-29, 48 h, read-out: Activity.
Assay type: functional
`CCCCn1c(=O)c(C2CNC(=O)c3ccccc3N2)cc2ccc(Cl)cc21` (stereo not drawn) showed a growth at 10 µM of 98.7%.

These molecules were tested on HOP-62 (assay: Growth inhibition of human HOP62 cells assessed as cell growth at 10 uM incubated for 48 hrs by sulforhodamine B assay relative to control). Details: HOP-62, 48 h, read-out: Activity.
Assay type: functional
`CCCCn1c(=O)c(C2CNC(=O)c3ccccc3N2)cc2ccc(Cl)cc21` (stereo not drawn) showed a growth at 10 µM of 94%.

What follows are molecules tested on MDA-MB-468 (assay: Growth inhibition of human MDA-MB-468 cells assessed as cell growth at 10 uM incubated for 48 hrs by sulforhodamine B assay relative to control). Details: MDA-MB-468, 48 h, read-out: Activity.
Assay type: functional
Work on `CCCCn1c(=O)c(C2CNC(=O)c3ccccc3N2)cc2ccc(Cl)cc21` (stereo not drawn) yielded a growth at 10 µM of 99.8%.

The molecules below were run on OVCAR-4 (assay: Growth inhibition of human OVCAR4 cells assessed as cell growth at 10 uM incubated for 48 hrs by sulforhodamine B assay relative to control). Details: OVCAR-4, 48 h, read-out: Activity.
Assay type: functional
Work on `CCCCn1c(=O)c(C2CNC(=O)c3ccccc3N2)cc2ccc(Cl)cc21` (stereo not drawn) yielded a growth at 10 µM of 97.8%.

Each molecule was assayed on NCI-H23 (assay: Growth inhibition of human NCI-H23 cells assessed as cell growth at 10 uM incubated for 48 hrs by sulforhodamine B assay relative to control). Details: NCI-H23, 48 h, read-out: Activity.
Assay type: functional
`CCCCn1c(=O)c(C2CNC(=O)c3ccccc3N2)cc2ccc(Cl)cc21` (stereo not drawn) was tested, and the growth at 10 µM was 93.5%.
